Source: article PMC6225228, “Design, Synthesis and Evaluation of N-pyrazinylbenzamides as Potential Antimycobacterial Agents” (Molecules : A Journal of Synthetic Chemistry and Natural …, 2018)
Values after ≈ are worked out from the molar mass of the structure shown. Read-outs that look alike come from different tables or passages of the source.

Assays:
[1] = test system: M. kansasii CNCTC My 235/80 (ATCC 12478); assay: Antimycobacterial microdilution MABA, M. kansasii; assay type: cell-based, Mycobacterium kansasii; details: for M. kans. ATCC 12478 MIC: Middlebrook 7H9 with OADC, pH 6.6, MABA; for MIC: Mycobacterium kansasii, ATCC12478, pH 6.6, read-out: M. kans. ATCC 12478 MIC, Middlebrook 7H9 with OADC, pH 6.6, MABA
[2] = test system: Trichophyton interdigitale 445; assay: Antifungal microdilution broth, TI; assay type: cell-based; details: read-out: MIC TI
[3] = test system: Enterococcus sp. J 14365/08; assay: Antibacterial microdilution broth, EF; assay type: cell-based; details: Enterococcus, read-out: MIC EF
[4] = test system: Escherichia coli CCM 4517; assay: Antibacterial microdilution broth, EC; assay type: cell-based; details: Escherichia coli, read-out: MIC EC
[5] = test system: Mycobacterium tuberculosis H37Rv CNCTC My 331/88 (ATCC 27294); assay: Antimycobacterial microdilution MABA, M. tuberculosis; assay type: cell-based; details: for Mtb H37Rv ATCC 27294 MIC: Middlebrook 7H9 with OADC growth supplement, pH = 6.6, MABA; for MIC: Mycobacterium tuberculosis
[6] = test system: Pseudomonas aeruginosa CCM 1961; assay: Antibacterial microdilution broth, PA; assay type: cell-based; details: Pseudomonas aeruginosa, read-out: MIC PA
[7] = test system: Staphylococcus epidermidis H 6966/08; assay: Antibacterial microdilution broth, SE; assay type: cell-based; details: Staphylococcus epidermidis, read-out: MIC SE
[8] = test system: Candida albicans ATCC 44859; assay: Antifungal microdilution broth, CA; assay type: cell-based; details: read-out: MIC CA
[9] = test system: M. avium ssp. avium CNCTC My 80/72 (ATCC 15769); assay: Antimycobacterial microdilution MABA, M. avium; assay type: cell-based, Mycobacterium avium; details: for M. avium ATCC 15769 MIC: Middlebrook 7H9 with OADC, pH 6.6, MABA; for MIC: Mycobacterium avium, ATCC15769, pH 6.6, read-out: M. avium ATCC 15769 MIC
Trichosporon asahii 1188 = assay: Antifungal microdilution broth, TA; assay type: cell-based; details: read-out: MIC TA
[10] = test system: Staphylococcus aureus CCM 4516/08; assay: Antibacterial microdilution broth, SA; assay type: cell-based
[11] = test system: Staphylococcus aureus H 5996/08 methicillin resistant; assay: microbe, parasite or virus in culture; assay type: cell-based; details: Staphylococcus aureus, MRSA, read-out: MIC MRSA
Candida krusei E28 = assay: Antifungal microdilution broth, CK; assay type: cell-based; details: read-out: MIC CK
Candida tropicalis 156 = assay: Antifungal microdilution broth, CT; assay type: cell-based; details: read-out: MIC CT
[12] = test system: Aspergillus fumigatus 231; assay: Antifungal microdilution broth, AF; assay type: cell-based; details: read-out: MIC AF
[13] = test system: Lichtheimia corymbifera 272; assay: Antifungal microdilution broth, LC; assay type: cell-based; details: read-out: MIC LC
[14] = human, HepG2 cells
Candida glabrata 20/I = assay: Antifungal microdilution broth, CG; assay type: cell-based; details: read-out: MIC CG
[15] = test system: Mycobacterium smegmatis CCM 4622 (ATCC 607); assay: Antimycobacterial microdilution, M. smegmatis; assay type: cell-based; details: Mycolicibacterium smegmatis, read-out: M. smeg. ATCC 607 MIC
[16] = Confirmatory prolonged HepG2 cytotoxicity, CellTox Green Cytotoxicity Assay; details: human, HepG2 cells
[17] = test system: eight fungal strains of clinical importance; assay: Antifungal microdilution, all tested fungal strains; assay type: cell-based; details: read after 24 h (Trichophyton interdigitale 72 h)
[18] = Trichophyton interdigitale, 445, 72 h
[19] = Trichophyton interdigitale, 445, 120 h
[20] = read-out: Mtb H37Rv ATCC 27294 MIC, Middlebrook 7H9 with OADC growth supplement, pH = 6.6, MABA
[21] = read-out: Mtb MIC, molar concentration
[22] = Candida albicans, ATCC44859, 24 h
[23] = Candida albicans, ATCC44859, 48 h
[24] = Trichosporon asahii, 1188, 24 h
[25] = Trichosporon asahii, 1188, 48 h
[26] = Staphylococcus aureus, CCM4516, 24 h, read-out: MIC SA, 24 h
[27] = Staphylococcus aureus, CCM4516, 48 h, read-out: MIC SA, 48 h
[28] = Aspergillus fumigatus, 231, 24 h
[29] = Aspergillus fumigatus, 231, 48 h
[30] = Lichtheimia corymbifera, 272, 24 h
[31] = Lichtheimia corymbifera, 272, 48 h
[32] = Nakaseomyces glabratus, 20/I, 24 h
[33] = Nakaseomyces glabratus, 20/I, 48 h

For `Cc1ccc(C(=O)Nc2cnc(Cl)cn2)cc1` [Compound 2h], the “M. kans. ATCC 12478 MIC” value [1] was >100 µg/mL, the MIC [1] was > 100 µg/mL and the MIC [2, 18] was > 125 µM. The MIC [2, 19] was > 125 µM, the MIC ([3]; SP.J14365/08, 24 h) was > 125 µM and the MIC ([3]; SP.J14365/08, 48 h) was > 125 µM. The MIC ([4]; CCM4517, 24 h) was > 125 µM, the MIC ([4]; CCM4517, 48 h) was > 125 µM and the “Mtb H37Rv ATCC 27294 MIC” value [5] was 6.25 µg/mL. For the same molecule, the MIC [5, 20] was 3.13 to 6.25 µg/mL, the MIC [5, 21] was 25.2 µM and the MIC ([6]; CCM1961, 72 h) was > 125 µM. The MIC ([6]; CCM1961, 120 h) was > 125 µM, the MIC ([7]; H6966/08, 24 h) was > 125 µM and the MIC ([7]; H6966/08, 48 h) was > 125 µM. For the same molecule, the MIC [8, 22] was > 125 µM, the MIC [8, 23] was > 125 µM and the “M. avium ATCC 15769 MIC” value [9] was >100 µg/mL. For the same molecule, the MIC [9] was > 100 µg/mL, the MIC (Trichosporon asahii 1188; [24]) was > 125 µM and the MIC (Trichosporon asahii 1188; [25]) was > 125 µM. For the same molecule, the MIC ([10]; 24 h, read-out: MIC SA) was >125 µM, the MIC [10, 26] was > 125 µM and the MIC [10, 27] was > 125 µM. The MIC ([11]; 24 h) was > 125 µM, the MIC ([11]; 48 h) was > 125 µM and the MIC (Candida krusei E28; Pichia kudriavzevii, E28, 24 h) was > 125 µM. The MIC (Candida krusei E28; Pichia kudriavzevii, E28, 48 h) was > 125 µM, the MIC (Candida tropicalis 156; Candida tropicalis, 156, 24 h) was > 125 µM and the MIC (Candida tropicalis 156; Candida tropicalis, 156, 48 h) was > 125 µM. The MIC [12, 28] was > 125 µM, the MIC [12, 29] was > 125 µM and the MIC [13, 30] was > 125 µM. For the same molecule, the MIC [13, 31] was > 125 µM, the IC50 at 24 h [14] was > 250 µM and the MIC (Candida glabrata 20/I; [32]) was > 125 µM. The MIC (Candida glabrata 20/I; [33]) was > 125 µM, the melting point was 186.4 to 187.1 °C and the MIC [15] was ≥ 500 µg/mL.

With `CCc1ccc(C(=O)Nc2cnc(Cl)cn2)cc1` [Compound 2i] the “M. kans. ATCC 12478 MIC” value [1] was >100 µg/mL, the MIC [1] was > 100 µg/mL and the MIC [2, 18] was > 125 µM. For the same molecule, the MIC [2, 19] was > 125 µM, the MIC ([3]; SP.J14365/08, 24 h) was > 125 µM and the MIC ([3]; SP.J14365/08, 48 h) was > 125 µM. For the same molecule, the MIC ([4]; CCM4517, 24 h) was > 125 µM, the MIC ([4]; CCM4517, 48 h) was > 125 µM and the “Mtb H37Rv ATCC 27294 MIC” value [5] was 3.13 µg/mL. For the same molecule, the MIC [5, 20] was 3.13 to 6.25 µg/mL, the MIC [5, 21] was 12 µM and the MIC ([6]; CCM1961, 72 h) was > 125 µM. The MIC ([6]; CCM1961, 120 h) was > 125 µM, the MIC ([7]; H6966/08, 24 h) was > 125 µM and the MIC ([7]; H6966/08, 48 h) was > 125 µM. For the same molecule, the MIC [8, 22] was > 125 µM, the MIC [8, 23] was > 125 µM and the “M. avium ATCC 15769 MIC” value [9] was >100 µg/mL. The MIC [9] was > 100 µg/mL, the MIC (Trichosporon asahii 1188; [24]) was > 125 µM and the MIC (Trichosporon asahii 1188; [25]) was > 125 µM. For the same molecule, the MIC ([10]; 24 h, read-out: MIC SA) was >125 µM, the MIC [10, 26] was > 125 µM and the MIC [10, 27] was > 125 µM. For the same molecule, the MIC ([11]; 24 h) was > 125 µM, the MIC ([11]; 48 h) was > 125 µM and the MIC (Candida krusei E28; Pichia kudriavzevii, E28, 24 h) was > 125 µM. For the same molecule, the MIC (Candida krusei E28; Pichia kudriavzevii, E28, 48 h) was > 125 µM, the MIC (Candida tropicalis 156; Candida tropicalis, 156, 24 h) was > 125 µM and the MIC (Candida tropicalis 156; Candida tropicalis, 156, 48 h) was > 125 µM. For the same molecule, the MIC [12, 28] was > 125 µM, the MIC [12, 29] was > 125 µM and the MIC [13, 30] was > 125 µM. For the same molecule, the MIC [13, 31] was > 125 µM, the IC50 at 24 h [14] was > 250 µM and the MIC (Candida glabrata 20/I; [32]) was > 125 µM. The MIC (Candida glabrata 20/I; [33]) was > 125 µM, the IC50 at 24 h [16] was 264 µM and the IC50 at 48 h [16] was 250 µM. The MIC [15] was ≥ 500 µg/mL.

In the case of `C[C@@H]1[C@H](O)[C@@H](C)/C=C/C=C/CC/C=C/C=C/C=C/C=C/C(O[C@H]2O[C@H](C)[C@@H](O)[C@H](N)[C@@H]2O)CC2O[C@](O)(CC(O)C(O)CCC(O)CC(O)CC(O)CC(=O)O[C@H]1C)CC(O)C2C(=O)O` (stereo partly drawn) [NYS, nystatin, reference compound], the MIC ([2]; 72 h) is reported as 3.9 µM (≈ 3.61 µg/mL), the MIC ([2]; 120 h) is reported as 7.81 µM (≈ 7.23 µg/mL) and the MIC ([8]; 24 h) is reported as 0.98 µM (≈ 0.908 µg/mL). For the same molecule, the MIC ([8]; 48 h) was 1.95 µM (≈ 1.81 µg/mL), the MIC (Trichosporon asahii 1188; 24 h) was 1.95 µM (≈ 1.81 µg/mL) and the MIC (Trichosporon asahii 1188; 48 h) was 1.95 µM (≈ 1.81 µg/mL). For the same molecule, the “MIC, all tested fungal strains” value [17] was 0.98 to 15.62 µM, the MIC (Candida krusei E28; 24 h) was 1.95 µM (≈ 1.81 µg/mL) and the MIC (Candida krusei E28; 48 h) was 3.9 µM (≈ 3.61 µg/mL). The MIC (Candida tropicalis 156; 24 h) was 1.95 µM (≈ 1.81 µg/mL), the MIC (Candida tropicalis 156; 48 h) was 3.9 µM (≈ 3.61 µg/mL) and the MIC ([12]; 24 h) was 1.95 µM (≈ 1.81 µg/mL). For the same molecule, the MIC ([12]; 48 h) was 3.9 µM (≈ 3.61 µg/mL), the MIC ([13]; 24 h) was 15.62 µM (≈ 14.5 µg/mL) and the MIC ([13]; 48 h) was 31.25 µM (≈ 28.9 µg/mL). For the same molecule, the MIC (Candida glabrata 20/I; 24 h) was 1.95 µM (≈ 1.81 µg/mL) and the MIC (Candida glabrata 20/I; 48 h) was 3.9 µM (≈ 3.61 µg/mL).
